Target: T1, PTP-1B (Homo sapiens, UniProt P18031)
T1 construct: PTP-1B (purified, 1 mg/mL) as a 1:250 dilution
T1 sequence (P18031 1-321 limits assumed): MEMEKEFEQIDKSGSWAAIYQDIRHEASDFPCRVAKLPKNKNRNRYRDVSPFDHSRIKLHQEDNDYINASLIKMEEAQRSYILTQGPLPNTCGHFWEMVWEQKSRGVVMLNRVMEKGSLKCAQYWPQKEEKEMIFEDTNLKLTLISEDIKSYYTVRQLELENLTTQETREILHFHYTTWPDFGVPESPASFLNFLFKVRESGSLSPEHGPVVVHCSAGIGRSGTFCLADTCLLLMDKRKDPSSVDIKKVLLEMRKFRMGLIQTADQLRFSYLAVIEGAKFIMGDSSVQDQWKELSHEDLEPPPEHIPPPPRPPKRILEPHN
Assay: pNPP assay for tyrosine phosphatase inhibitory activity
Assay type: biochemical
Conditions: Table 1; pNPP substrate 10 mM, 30° C., 10 minutes, absorbance at 405 nm
Experimental: The compounds provided herein are evaluated for biological activity as inhibitors of PTP-1B using, for example, a pNPP assay. Such an assay can be used to screen compounds for tyrosine phosphatase inhibitory activity as shown in Example 39.
A 5× stock of pNPP (p-nitrophenol phosphate) substrate is prepared as 50 mM pNPP in assay buffer. Various tyrosine phosphatase solutions can be prepared as follows: • PTP-1B (purified, 1 mg/mL) as a 1:250 dilution (to a final concentration of 4:g/mL); • TC-PTP (NEB, 1000 units in 100:L) as a 1:50 dilution (to a final concentration of 2 U/10:L (4:g/mL)); • CD45 (Calbiochem, 20:g, 400 units in 100: L) as a 1 :50 dilution (to a final concentration of 0.8 U/10:L (4:g/mL)); • LAR (NEB, 1000 units in 200:L) as a 1:75 dilution (to a final concentration of 0.7 U/10:L (4:g/mL)); and • PTP-β (UBI, #14-350, 10,000 units, 40:g/571:L) as a 1:17.5 dilution (to a final concentration of 10 U/10:L (4:g/mL));
The compound to be tested is prepared as 1:16.7 and 1:50 dilutions from stock in a total volume of 1 00:M DMSO to give final concentrations of 626 and 200:M. The reaction mixtures are prepared in a 96-well microtiter plate (on ice) as 55:L assay buffer, 5:L of the diluted compound (to a final concentration of 31.3 and 10:M), 20:L of the pNPP substrate solution (to a final concentration of 10 mM) and 20:L PTPase in assay buffer. The reactants are mixed well, the plate placed in a water bath at 30° C. and incubated for 10 minutes. The reaction is then terminated by adding 1 OO:L of 2M K2CO3 per well, and the absorbance is measured at 405 nm by conventional means.
Unless otherwise indicated, this assay was used to determine activity for the selected compounds whose activity is recorded in Table 1 and Table 2.

| Compound | IC50 |
| --- | --- |
| CS(=O)(=O)c1ccc(-c2cnc(N(Cc3ccc(C(F)(F)C(=O)O)cc3)c3ccc(Cl)c(Cl)c3)o2)cc1 [[4-({(3,4-Dichloro-phenyl)-[5-(4-methanesulfonyl-phenyl)-oxazol-2-yl]-amino}-methyl)-phenyl]-difluoro-acetic acid] | 10000 to 100000 nM |
| COP(=O)(O)C(F)(F)c1ccc(CN(c2ccc(Cl)c(Cl)c2)c2ncc(-c3ccc(S(C)(=O)=O)cc3)o2)cc1Br [{[2-Bromo-4-({(3,4-dichloro-phenyl)-[5-(4-methanesulfonyl-phenyl)-oxazol-2-yl]-amino}-methyl)-phenyl]-difluoro-methyl]-phosphonic acid monomethyl ester] | 10000 to 100000 nM |

Same assay, conditions: Table 2; pNPP substrate 10 mM, 30° C., 10 minutes, absorbance at 405 nm

| IC50 | Compound |
| --- | --- |
| 500 to 1000 nM | COc1ccccc1N(Cc1ccc(C(F)(F)P(=O)(O)O)c(Cl)c1)c1ncc(-c2ccc(S(C)(=O)=O)cc2)o1 [[(2-Chloro-4-{[[5-(4-methanesulfonyl-phenyl)-oxazol-2-yl]-(2-methoxy-phenyl)-amino]-methyl}-phenyl)-difluoro-methyl]-phosphonic acid] |
| 1000 to 10000 nM | CCCCCCCCCCCCCCCCOCCCOP(=O)(O)C(F)(F)c1ccc(CN(c2ccc(Cl)c(Cl)c2)c2ncc(-c3ccc(S(C)(=O)=O)cc3)o2)cc1Br [{[2-Bromo-4-({(3,4-dichloro-phenyl)-[5-(4-methanesulfonyl-phenyl)-oxazol-2-yl]-amino}-methyl)-phenyl]-difluoro-methyl}-phosphonic acid mono-(3-hexadecyloxy-propyl) ester] |
| 10000 to 100000 nM | CC(C)OC(=O)OC(C)OP(=O)(O)C(F)(F)c1ccc(CN(c2ccc(F)cc2)c2ncc(-c3ccc(S(C)(=O)=O)cc3)o2)cc1Br (centres unmarked) [{[2-Bromo-4-({(4-fluoro-phenyl)-[5-(4-methanesulfonyl-phenyl)-oxazol-2-yl]-amino}-methyl)-phenyl]-difluoro-methyl}-phosphonic acid mono-(1-isopropoxycarbonyloxy-ethyl) ester] |
| 1000 to 10000 nM | CCCCCCCCCCCCCCCCOCCCOP(=O)(O)C(F)(F)c1ccc(CN(c2ccc(F)cc2)c2ncc(-c3ccc(S(C)(=O)=O)cc3)o2)cc1Br [{[2-Bromo-4-({(4-fluoro-phenyl)-[5-(4-methanesulfonyl-phenyl)-oxazol-2-yl]-amino}-methyl)-phenyl]-difluoro-methyl}-phosphonic acid mono-(3-hexadecyloxy-propyl) ester] |
| 500 to 1000 nM | CS(=O)(=O)c1ccc(CN(Cc2ccc(C(F)(F)P(=O)(O)O)c(Br)c2)c2ncc(-c3ccc(S(C)(=O)=O)cc3)o2)cc1 [{[2-Bromo-4-({(4-methanesulfonyl-benzyl)-[5-(4-methanesulfonyl-phenyl)-oxazol-2-yl]-amino}-methyl)-phenyl]-difluoro-methyl}-phosphonic acid] |
| 100 to 500 nM | CS(=O)(=O)c1ccc(-c2cnc(N(Cc3ccc(C(F)(F)P(=O)(O)O)c(Cl)c3)c3ccc(F)cc3)o2)cc1 [{[2-Chloro-4-({(4-fluoro-phenyl)-[5-(4-methanesulfonyl-phenyl)-oxazol-2-yl]-amino}-methyl)-phenyl]-difluoro-methyl}-phosphonic acid] |
| 100 to 500 nM | CS(=O)(=O)c1ccc(-c2cnc(N(Cc3ccc(C(F)(F)P(=O)(O)O)c(Cl)c3)c3ccccc3)o2)cc1 [{[2-Chloro-4-({(5-(4-methanesulfonyl-phenyl)-oxazol-2-yl]-phenyl-amino}-methyl)-phenyl]-difluoro-methyl}-phosphonic acid] |

More lines, now with the values behind:

| Compound | IC50 |
| --- | --- |
| CS(=O)(=O)c1ccc(-c2cnc(N(Cc3ccc(C(F)(F)P(=O)(O)O)c(Cl)c3)c3ccc(Cl)c(Cl)c3)o2)cc1 [Example 31, {[2-Chloro-4-({(3,4-dichloro-phenyl)-[5-(4-methanesulfonyl-phenyl)-oxazol-2-yl]-amino}-methyl)-phenyl]-difluoro-methyl}-phosphonic acid] | 100 to 500 nM |
| COc1cccc(CN(Cc2ccc(C(F)(F)P(=O)(O)O)c(Br)c2)c2ncc(-c3ccc(S(C)(=O)=O)cc3)o2)c1 [[(2-Bromo-4-{[[5-(4-methanesulfonyl-phenyl)-oxazol-2-yl]-(3-methoxy-benzyl)-amino]-methyl}-phenyl)-difluoro-methyl]-phosphonic acid] | 100 to 500 nM |
| COCCCN(Cc1ccc(C(F)(F)P(=O)(O)O)c(Br)c1)c1ncc(-c2ccc(S(C)(=O)=O)cc2)o1 [[(2-Bromo-4-{[[5-(4-methanesulfonyl-phenyl)-oxazol-2-yl]-(3-methoxy-propyl)-amino]-methyl}-phenyl)-difluoro-methyl]-phosphonic acid] | 100 to 500 nM |
| CS(=O)(=O)c1ccc(-c2cnc(N(Cc3ccc(C(F)(F)P(=O)(O)Oc4ccccc4)c(Br)c3)c3ccc(F)cc3)o2)cc1 [{[2-Bromo-4-({(4-fluoro-phenyl)-[5-(4-methanesulfonyl-phenyl)-oxazol-2-yl]-amino}-methyl)-phenyl]-difluoro-methyl}-phosphonic acid monophenyl ester] | 10000 to 100000 nM |

Tested on: not given
Assay: not given
Conditions: not given

| melting point | Compound |
| --- | --- |
| 141 to 143 °C | CS(=O)(=O)c1ccc(-c2cnc(N(Cc3ccc(C(F)(F)P(=O)(O)O)c(Cl)c3)c3ccc(Cl)c(Cl)c3)o2)cc1 [Example 31, {[2-Chloro-4-({(3,4-dichloro-phenyl)-[5-(4-methanesulfonyl-phenyl)-oxazol-2-yl]-amino}-methyl)-phenyl]-difluoro-methyl}-phosphonic acid] |
